Experimental findings from patent US8853424B2 (Japan Science and Technology Agency, priority 2008, dated 2014) are described below.

One assay relates to transglutaminase (TGase). In words: Measurement of TG (TGase inhibitory activity, monodansyl cadaverine / N,N-dimethylcasein fluorescence, FDSS 3000). It counts as biochemical. Summed up:
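Compound (1 μL of 10 mM stock) added to 0.1 mL reaction: 100 mM HEPES-NaOH pH 7.5, 1 mM CaCl2, 20 μM monodansyl cadaverine, 0.05 mg/mL N,N-dimethylcasein, 5 μg/mL TGase. Rate of fluorescence change at 340 nm measured; DMSO control set to 100; TG50 is the concentration halving activity.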

The test system of assay [1] is Truncated N-terminal huntington 150 Q-EGFP-Neuron 2a cells. In words: Measurement of x-Fold (polyglutamine aggregation inhibitory activity). Type of assay: cell-based. How it is done:
In the present invention, the polyglutamine aggregation inhibitory activity (x-Fold) can be measured, for example, by the method described in the Example.
The number of the aggregated cells, and the total number of cells were counted by Array Scan V T1 (manufactured by Cellomics, Pittuburg, USA), and the ratio of the aggregated cells to the total number of cells was determined (x-Fold). […]

For assay [2], the system named is SOC (store operated calcium channel). In words: Measurement of SOC IC50 (thapsigargin store depletion, calcium re-addition, CHO cells). To be noted: read-out: SOC IC50. Type of assay: cell-based. How it is done: The SOC (store operated calcium channel)-suppressive action can be measured by the method described in the Example and using, for example, FDSS 3000.
CHO cell culture medium was replaced with a BSS solution which is an extracellular fluidfree of calcium, the compound of the present invention was added 1 min later, and 1 μM thapsigargin was allowed to act thereon 2 min later to deplete intracellular calcium store. […]

Where [3] appears, read: TGase activity with compound (10 mM, 1 μL in 0.1 ml enzyme reaction solution), DMSO control taken as 100.
The mark [4] stands for this setting: TGase inhibitory activity value, Table 1.
The mark [5] stands for this setting: polyglutamine aggregation inhibitory activity, Table 1.
The mark [6] stands for this setting: ratio of aggregated cells to total number of cells, compound 20 μM, 20 hr, almost 1 without compound, smaller = stronger inhibition.
Where [7] appears, read: CHO cells, 1 μM thapsigargin, 2 mM calcium chloride.
Where [8] appears, read: Cricetulus griseus, CHO, Table 1.
[9] abbreviates: Cricetulus griseus, CHO, CHO cells, 1 μM thapsigargin, 2 mM calcium chloride.
The mark [10] stands for this setting: Cricetulus griseus, CHO, CHO cells, thapsigargin store depletion.

Where two headings read alike, the source gives them in different places.

As a reminder, the IC50 is the midpoint of a concentration-inhibition curve. Take “4,4′(phenyl-2-aminoethoxyboryl)diphenyl [Example 10]”: the “TGase activity remaining (% of DMSO control = 100)” value with transglutaminase (TGase) (setting [3]) and in the assay on transglutaminase (TGase) (setting [4]) was 7 throughout. The x-Fold in assay [1] (setting [5]) and in assay [1] (setting [6]) was 0.92 throughout. In addition, the half-maximal inhibitory concentration (IC50) in assay [2] (setting [7]) amounted to 500 nM.
For “4,4′-((2-aminoethoxy)(3-chloro-4-methylphenyl)boryl)diphenylether [Example 249]”, the “TGase activity remaining (% of DMSO control = 100)” value in the assay on transglutaminase (TGase) (setting [3]) and in the assay on transglutaminase (TGase) (setting [4]) was 25 in each case. Also, the x-Fold in assay [1] (setting [5]) and in assay [1] (setting [6]) was 0.74 in each case. In addition, the IC50 in assay [2] (setting [7]) stood at 300 nM.
Regarding `NC(=O)CC(N)C(=O)OB(c1ccccc1)c1ccc(Oc2ccc(B(O)c3ccccc3)cc2)cc1` (single isomer, unassigned) [Example 6, (4-(phenylasparagineboryl)phenyl)(4′-(phenylhydroxyboryl)phenyl)ether], the “TGase activity remaining (% of DMSO control = 100)” value with transglutaminase (TGase) (setting [3]) was determined as 23; with transglutaminase (TGase) (TGase inhibitory activity value, Table 1, listed as 7132) it was 23. Besides, the x-Fold worked out at 1.01 in assay [1] (polyglutamine aggregation inhibitory activity, Table 1, listed as 7132) and 1.01 in assay [1] (setting [6]). The IC50 in assay [2] (setting [8]) stood at 200 nM.
Regarding `OB(c1ccccc1)c1ccc(Oc2ccc(B(O)c3ccccc3)cc2)cc1` [Example 3, bis(4,4′-(phenylhydroxyboryl)phenyl)ether], the “TGase activity remaining (% of DMSO control = 100)” value in the assay with transglutaminase (TGase) (setting [3]) and in the assay on transglutaminase (TGase) (setting [4]) was −20 throughout. Besides, the x-Fold in assay [1] (setting [5]) and in assay [1] (setting [6]) was 0.49 each time. The IC50 in assay [2] (setting [7]) was 500 nM.
Consider `OB(c1ccccc1)c1cccc(COCc2cccc(B(O)c3ccccc3)c2)c1` [Example 7, bis(3,3′-(phenylhydroxyboryl)benzyl)ether], for which, in the assay on transglutaminase (TGase) (setting [3]), the “TGase activity remaining (% of DMSO control = 100)” value was determined as 14. For the same molecule, in assay [1] (setting [6]), the x-Fold was found to be 1.03. For the same molecule, the IC50 in assay [2] (setting [7]) was found to be 200 nM.
In the case of `NCCSB(c1ccccc1)c1ccc(-c2ccc(B(SCCN)c3ccccc3)cc2)cc1` [Example 9, 4,4′(phenyl-2-aminoethylthioboryl)diphenyl], the “TGase activity remaining (% of DMSO control = 100)” value in the assay on transglutaminase (TGase) (setting [3]) and with transglutaminase (TGase) (setting [4]) was 12 in each case. Moreover, the x-Fold in assay [1] (setting [5]) and in assay [1] (setting [6]) was 0.87 each time. Besides, the IC50 in assay [2] (setting [7]) amounted to 500 nM.
For the molecule `Cc1ccc(B(SCCN)c2ccc(C)c(Cl)c2)cc1Cl` [Example 32, di(3-chloro-4-methylphenyl)-2-aminoethylthioborane], the “TGase activity remaining (% of DMSO control = 100)” value in the assay with transglutaminase (TGase) (setting [3]) and with transglutaminase (TGase) (setting [4]) was 12 in each case. For the same molecule, the x-Fold in assay [1] (setting [5]) and in assay [1] (setting [6]) was 1.02 in each case. Moreover, the IC50 in assay [2] (setting [9]) and in assay [2] (setting [8]) was 1000 nM in each case.
Consider `Cc1ccc(B(OC(=O)C(N)CN)c2ccc(C)c(Cl)c2)cc1Cl` (stereo not drawn) [Example 71, di(3-chloro-4-methylphenyl)(2,3-diaminopropionate-O,N)borane], for which the “TGase activity remaining (% of DMSO control = 100)” value in the assay with transglutaminase (TGase) (setting [3]) and in the assay with transglutaminase (TGase) (setting [4]) was 51 each time. For the same molecule, the x-Fold in assay [1] (setting [5]) and in assay [1] (setting [6]) was 0.97 throughout. Also, the IC50 in assay [2] (setting [9]) and in assay [2] (setting [8]) was 1000 nM each time.
For `Cc1ccc(B(OCCN2CCNCC2)c2ccc(C)c(Cl)c2)cc1Cl` [Example 72, di(3-chloro-4-methylphenyl)piperazinoethoxyborane], the “TGase activity remaining (% of DMSO control = 100)” value in the assay with transglutaminase (TGase) (setting [3]) and in the assay on transglutaminase (TGase) (setting [4]) was 41 each time. Further, the x-Fold in assay [1] (setting [5]) and in assay [1] (setting [6]) was 1.02 each time. For the same molecule, the IC50 in assay [2] (setting [9]) and in assay [2] (setting [8]) was 500 nM each time.
With `Cc1ccc(B(OCCN2CCCCC2)c2ccc(C)c(Cl)c2)cc1Cl` [Example 73, di(3-chloro-4-methylphenyl)piperidinoethoxyborane], the “TGase activity remaining (% of DMSO control = 100)” value with transglutaminase (TGase) (setting [3]) and in the assay on transglutaminase (TGase) (setting [4]) was 35 each time. The x-Fold in assay [1] (setting [5]) and in assay [1] (setting [6]) was 0.85 each time. The IC50 in assay [2] (setting [9]) and in assay [2] (setting [8]) was 1200 nM each time.
With `CC(C)(C)B(O)c1ccccc1` [Example 109, tertiary-butyl phenyl borinic acid], the “TGase activity remaining (% of DMSO control = 100)” value with transglutaminase (TGase) (setting [3]) and with transglutaminase (TGase) (setting [4]) was 108 in each case. Besides, the x-Fold in assay [1] (setting [5]) and in assay [1] (setting [6]) was 1.02 in each case. Further, the IC50 in assay [2] (setting [9]) and in assay [2] (setting [8]) was over 10000 nM in each case.
For the molecule `CCC(C)B(OCCN)c1ccccc1` (stereo not drawn) [Example 110, aminoethyl secondary-butyl phenylborinate], the “TGase activity remaining (% of DMSO control = 100)” value in the assay on transglutaminase (TGase) (setting [3]) and in the assay with transglutaminase (TGase) (setting [4]) was 115 in each case. Moreover, the x-Fold in assay [1] (setting [5]) and in assay [1] (setting [6]) was 1.02 in each case. For the same molecule, the 50% inhibitory concentration (IC50) in assay [2] (setting [9]) and in assay [2] (setting [8]) was over 10000 nM throughout.
As for `OCCCCB(O)c1ccccc1` [Example 114, 4-hydroxybutylphenylborinic acid], the “TGase activity remaining (% of DMSO control = 100)” value with transglutaminase (TGase) (setting [3]) and in the assay on transglutaminase (TGase) (setting [4]) was 120 in each case. The x-Fold in assay [1] (setting [5]) and in assay [1] (setting [6]) was 0.99 in each case. In addition, the IC50 in assay [2] (setting [9]) and in assay [2] (setting [8]) was 2000 nM in each case.
Turning to `NCCOB(c1ccccc1)c1ccc(B(OCCN)c2ccccc2)cc1` [Example 118, 1,4-bis(phenyl-2-aminoethoxyboryl)benzene], the “TGase activity remaining (% of DMSO control = 100)” value in the assay with transglutaminase (TGase) (setting [3]) and in the assay with transglutaminase (TGase) (setting [4]) was 93 in each case. In addition, the x-Fold in assay [1] (setting [5]) and in assay [1] (setting [6]) was 0.97 each time. Moreover, the IC50 in assay [2] (setting [9]) and in assay [2] (setting [8]) was 2000 nM in each case.
As to `Cc1ccc(B(OCc2ccccn2)c2ccc(C)c(Cl)c2)cc1Cl` [Example 215], the x-Fold in assay [1] (setting [5]) and in assay [1] (setting [6]) was 1.03 in each case. Moreover, the IC50 in assay [2] (setting [9]) and in assay [2] (setting [8]) was 2000 nM throughout.
Consider `CC1[NH2+][B-](c2ccccc2)(c2ccccc2)OC1=O` (stereo not drawn) [Example 258, diphenyl(alaninate-O,N)borane], for which the “TGase activity remaining (% of DMSO control = 100)” value in the assay on transglutaminase (TGase) (setting [3]) and in the assay with transglutaminase (TGase) (setting [4]) was 110 in each case. Besides, the IC50 in assay [2] (setting [9]) and in assay [2] (setting [8]) was 5000 nM each time.
As for `OB(c1ccccc1)c1ccc(COCc2cccc(B(O)c3ccccc3)c2)cc1` [Example 329, (3-(phenylhydroxyboryl)benzyl)(4-(phenylhydroxyboryl)benzyl)ether], the “TGase activity remaining (% of DMSO control = 100)” value in the assay on transglutaminase (TGase) (setting [3]) and in the assay with transglutaminase (TGase) (setting [4]) was 81 throughout. Further, the IC50 in assay [2] (setting [9]) and in assay [2] (setting [8]) was 200 nM throughout.
With `OB(c1ccccc1)c1ccc(COc2ccc(B(O)c3ccccc3)cc2)cc1` [Example 370, (4-phenylhydroxyborylphenyl)(4′-phenylhydroxyborylbenzyl)ether], the x-Fold in assay [1] (setting [5]) and in assay [1] (setting [6]) was 0.76 in each case. The IC50 in assay [2] (setting [9]) and in assay [2] (setting [8]) was 2000 nM in each case.
On to `OB(c1ccc(COc2ccc(B(O)c3ccc(C(F)(F)F)cc3)cc2)cc1)c1ccc(C(F)(F)F)cc1` [Example 372, (4-trifluoromethylphenylhydroxyborylphenyl)(4′-trifluoromethylphenylhydroxyborylbenzyl)ether], for which the x-Fold in assay [1] (setting [5]) and in assay [1] (setting [6]) was 0.86 each time. Moreover, the IC50 in assay [2] (setting [9]) and in assay [2] (setting [8]) was 1000 nM in each case.
`NCCOB(c1ccc(COc2ccc(B(OCCN)c3ccc(C(F)(F)F)cc3)cc2)cc1)c1ccc(C(F)(F)F)cc1` [Example 373, (4-trifluoromethylphenylaminoethoxyborylphenyl)(4′-trifluoromethylphenylaminoethoxyborylbenzyl)ether]: the x-Fold in assay [1] (setting [5]) and in assay [1] (setting [6]) was 0.84 throughout. Also, the IC50 in assay [2] (setting [9]) and in assay [2] (setting [8]) was 2000 nM in each case.
On to `CN(C)CCOB(c1ccccc1)c1cccc(COCc2cccc(B(OCCN(C)C)c3ccccc3)c2)c1` [Example 403, bis(3,3′-(phenyl-N,N-dimethylaminoethoxyboryl)benzyl)ether], for which the x-Fold in assay [1] (polyglutamine aggregation, Truncated N-terminal huntington 150 Q-EGFP-Neuron 2a cells, listed as 2022) worked out at 1.14; in assay [1] (setting [6]), 1.14. For the same molecule, the IC50 in assay [2] (setting [9]) and in assay [2] (setting [10]) was 2000 nM in each case.
Regarding `NCCSB(c1ccccc1)c1cccc(COCc2cccc(B(SCCN)c3ccccc3)c2)c1` [Example 405, bis(3,3′-(phenyl-aminoethylthioboryl)benzyl)ether], the x-Fold in assay [1] (polyglutamine aggregation, Truncated N-terminal huntington 150 Q-EGFP-Neuron 2a cells) amounted to 0.86; in assay [1] (setting [6]), 0.86. Besides, the 50% inhibitory concentration (IC50) in assay [2] (setting [9]) and in assay [2] (setting [10]) was 500 nM in each case.
For the molecule “bis(3-chloro-4-methylphenyl hydroxyborylbenzyl)ether [Example 125]”, the “TGase activity remaining (% of DMSO control = 100)” value in the assay with transglutaminase (TGase) (setting [3]) and in the assay with transglutaminase (TGase) (setting [4]) was 113 throughout. The IC50 in assay [2] (setting [7]) was 10000 nM.
